# Values of other authors as cited in US20230414599A1, “NICOTINAMIDE, NICOTINAMIDE PRECURSORS AND NICOTINAMIDE METABOLITES AND COMPOSITIONS THEREOF FOR REDUCING THE TIME TO RESOLUTION OF SYMPTOMS IN PATIENTS WITH COVID-19 AND OTHER VIRAL INFECTIONS” (CONARIS RESEARCH INSTITUTE AG, priority 2020, published 2023).
# Test system: COVID-19
# Settings: patients with mild or moderate COVID-19; interim analysis; cited from earlier work
smiles,measurement,value
CC(C)C(=O)OC[C@H]1O[C@@H](n2ccc(NO)nc2=O)[C@H](O)[C@@H]1O [molnupiravir],Reduction of the risk of hospitalization or death compared to placebo,approximately 50%
